For one experiment, the target named is Escherichia coli DNA gyrase A/B tetramer (Escherichia coli, UniProt P0AES4+P0AES6). The experiment is described as follows: DNA gyrase supercoiling activity fluorescence polarisation assay. The class given is biochemical.
Chain of Escherichia coli DNA gyrase A/B tetramer (P0AES4 whole entry, one chain of several): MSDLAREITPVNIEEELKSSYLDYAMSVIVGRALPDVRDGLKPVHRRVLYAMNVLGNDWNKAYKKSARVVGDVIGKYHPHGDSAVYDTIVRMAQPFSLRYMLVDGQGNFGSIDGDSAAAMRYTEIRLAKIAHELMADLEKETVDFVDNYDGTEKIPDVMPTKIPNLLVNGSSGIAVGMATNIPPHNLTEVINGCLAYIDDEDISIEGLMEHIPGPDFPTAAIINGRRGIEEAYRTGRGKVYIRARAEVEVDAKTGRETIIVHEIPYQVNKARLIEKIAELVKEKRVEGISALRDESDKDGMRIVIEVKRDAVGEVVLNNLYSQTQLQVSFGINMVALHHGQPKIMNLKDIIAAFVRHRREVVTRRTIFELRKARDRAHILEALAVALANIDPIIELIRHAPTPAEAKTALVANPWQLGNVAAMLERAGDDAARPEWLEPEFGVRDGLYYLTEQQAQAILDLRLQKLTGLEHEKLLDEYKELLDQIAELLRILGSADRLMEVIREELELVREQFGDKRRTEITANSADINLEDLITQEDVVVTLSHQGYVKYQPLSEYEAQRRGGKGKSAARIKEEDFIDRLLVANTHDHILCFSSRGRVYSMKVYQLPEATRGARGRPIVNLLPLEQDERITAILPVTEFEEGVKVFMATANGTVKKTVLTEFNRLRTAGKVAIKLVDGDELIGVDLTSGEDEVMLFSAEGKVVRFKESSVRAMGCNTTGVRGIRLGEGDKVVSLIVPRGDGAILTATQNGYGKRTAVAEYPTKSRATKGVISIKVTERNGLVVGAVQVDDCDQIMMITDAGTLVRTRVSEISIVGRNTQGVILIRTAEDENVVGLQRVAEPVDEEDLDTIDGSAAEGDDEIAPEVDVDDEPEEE
Conditions: not given
The method in brief: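 5 nM gyrase supercoils 130 μg/ml relaxed triplex-sequence plasmid with 0.3 mM ATP in Tris pH 7.5/KCl/MgCl2/spermidine buffer, 0.8% DMSO, ~30 min at ambient temperature, 5-10 compound concentrations. Quenched with 40 nM BODIPY-FL triplex probe at pH 3.5; anisotropy read after 60 min (485/535 nm). IC50 by nonlinear regression against no-compound and 5 uM ciprofloxacin controls.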
The term IC50 denotes the concentration that inhibits the measured activity by half. With `C[C@@H]1CN2c3c(cc(C(=O)NC4CCCOC4)c(F)c3F)CC3(C(=O)NC(=O)NC3=O)[C@H]2[C@H](C)O1` (relative stereo) [Example 65, (2R,4S,4aS)-rel-9,10-Difluoro-2,4-dimethyl-2′,4′,6′-trioxo-N-(tetrahydro-2H-pyran-3-yl)-1,1′,2,3′,4,4′,4a,6′-octahydro-2′H,6H-spiro[1,4-oxazino[4,3-a]quinoline-5,5′-pyrimidine]-8-carboxamide], the half-maximal inhibitory concentration (IC50) is > 10000 nM.
Still for that read-out and setting: then `C[C@@H]1CN2c3cc(F)c(C#Cc4cccs4)cc3CC3(C(=O)NC(=O)NC3=O)[C@H]2[C@H](C)O1` (relative stereo) [Example 28, (2R,4S,4aS)-rel-9-Fluoro-2,4-dimethyl-8-(thiophen-2-ylethynyl)-1,2,4,4a-tetrahydro-2′H,6H-spiro[1,4-oxazino[4,3-a]quinoline-5,5′-pyrimidine]-2′,4′,6′(1′H,3′H)-trione], with 1110 nM.
Turning to `C/C(=N\NC(=O)CC#N)c1cc2c(c(F)c1F)N1C[C@@H](C)O[C@@H](C)[C@@H]1C1(C2)C(=O)NC(=O)NC1=O` (relative stereo) [Example 53, 2-Cyano-N′-{(1E)-1-[(2R,4S,4aS)-rel-9,10-difluoro-2,4-dimethyl-2′,4′,6′-trioxo-1,1′,2,3′,4,4′,4a,6′-octahydro-2′H,6H-spiro[1,4-oxazino[4,3-a]quinoline-5,5′-pyrimidin]-8-yl]ethylidene}acetohydrazide], the 50% inhibitory concentration (IC50) worked out at 1640 nM.
The compound `CCNC(=O)Nc1ccc2c(c1)CC1(C(=O)NC(=O)NC1=O)[C@H]1[C@H](C)O[C@H](C)CN21` (relative stereo) [Example 72, 1-[(2R,4S,4aS)-rel-2,4-Dimethyl-2′,4′,6′-trioxo-1,1′,2,3′,4,4′,4a,6′-octahydro-2′H,6H-spiro[1,4-oxazino[4,3-a]quinoline-5,5′-pyrimidin]-8-yl]-3-ethylurea] returned an IC50 of 10400 nM.
`C[C@H]1CN2c3c(cc(C#Cc4cccs4)c(F)c3F)CC3(C(=O)NC(=O)NC3=O)[C@@H]2[C@@H](C)O1` (relative stereo) [Example 10, (2S,4R,4aR)-rel-9,10-Difluoro-2,4-dimethyl-8-(thiophen-2-ylethynyl)-1,2,4,4a-tetrahydro-2′H,6H-spiro[1,4-oxazino[4,3-a]quinoline-5,5′-pyrimidine]-2′,4′,6′(1′H,3′H)-trione] showed an IC50 of 1450 nM.
Compound `C[C@@H]1CN2c3ccc(C#Cc4ccccn4)cc3CC3(C(=O)NC(=O)NC3=O)C2[C@H](C)O1` (relative stereo) [Example 2, (2R,4S)-rel-2,4-Dimethyl-8-(pyridin-2-ylethynyl)-1,2,4,4a-tetrahydro-2′H,6H-spiro[1,4-oxazino[4,3-a]quinoline-5,5′-pyrimidine]-2′,4′,6′(1′H,3′H)-trione] yielded a 50% inhibitory concentration (IC50) of 2090 nM.
Regarding `C[C@@H]1CN2c3c(cc(C(=O)NC4CCN(c5ccccn5)CC4)c(F)c3F)CC3(C(=O)NC(=O)NC3=O)[C@H]2[C@H](C)O1` (relative stereo) [Example 68, (2R,4S,4aS)-rel-9,10-Difluoro-2,4-dimethyl-2′,4′,6′-trioxo-N-[1-(pyridin-2-yl)piperidin-4-yl]-1,1′,2,3′,4,4′,4a,6′-octahydro-2′H,6H-spiro[1,4-oxazino[4,3-a]quinoline-5,5′-pyrimidine]-8-carboxamide], the midpoint of inhibition, the IC50, lay at 4150 nM.

The same experiment, now with this note: 5 nM enzyme, 0.3 mM ATP, relaxed plasmid, fluorescence anisotropy readout; read-out: E. coli DNA gyrase supercoiling IC50.
As for `C[C@@H]1CN2c3c(cc(C(=O)NC4CCN(C(=O)OC(C)(C)C)C4)c(F)c3F)CC3(C(=O)NC(=O)NC3=O)[C@H]2[C@H](C)O1` (relative stereo) [Example 63, tert-Butyl 3-({[2R,4S,4aS)-rel-9,10-difluoro-2,4-dimethyl-2′,4′,6′-trioxo-1,1′,2,3′,4,4′,4a,6′-octahydro-2′H,6H-spiro[1,4-oxazino[4,3-a]quinoline-5,5′-pyrimidin]-8-yl]carbonyl}amino)pyrrolidine-1-carboxylate], the IC50 was 6400 nM.

For the origin of these results see US20100261719A1, “CHEMICAL COMPOUNDS” (priority 2007, published 2010).
